Assay results reported in publication PMC11279404, “Discovery of 1H-benzo[d]imidazole-(halogenated)Benzylidenebenzohydrazide Hybrids as Potential Multi-Kinase Inhibitors” (Pharmaceuticals, 2024).
Values belong to the molecule of their own block, whether it stands above or below them.

Legend:
[1] = tested on: HepG2 (hepatocellular carcinoma cell line); test: MTT in vitro cytotoxicity, HepG2; type: cell-based, human; settings: for IC50: Homo sapiens, HepG2, MTT, mean ± SD of triplicate; for SI (Selectivity Index) HepG2: IC50 of WI-38 / IC50 of HepG2
[2] = MTT in vitro cytotoxicity, normal WI-38; type: cell-based; settings: human, WI-38 normal lung fibroblast cells, normal cell line, mean ± SD of triplicate
[3] = tested on: HCT-116 (human colon cancer cell line); test: MTT in vitro cytotoxicity, HCT-116; type: cell-based; settings: for IC50: Homo sapiens, HCT-116, MTT, mean ± SD of triplicate; for SI (Selectivity Index) HCT-116: IC50 of WI-38 / IC50 of HCT-116
[4] = tested on: MCF-7 (mammary gland breast cancer cell line); test: MTT in vitro cytotoxicity, MCF-7; type: cell-based, human; settings: for IC50: Homo sapiens, MCF7, MTT, mean ± SD of triplicate; for SI (Selectivity Index) MCF-7: IC50 of WI-38 / IC50 of MCF-7
[5] = tested on: cancer cell lines (HCT-116, HepG2, MCF-7); test: MTT in vitro cytotoxicity, summary across the cancer cell line panel; type: cell-based; settings: Homo sapiens; summary over HCT-116, HepG2, MCF-7; read-out: IC50 values across the tested cancer cell lines
Procedure: The cytotoxic activities of compounds 6a-l were assessed using a standard MTT method, which was performed across three different cancer cell line models, namely human colon cancer (HCT-116), hepatocellular carcinoma (HepG2), mammary gland cancer (MCF-7), and normal (WI-38) cell lines. […] […]. Substitution at the 4-position, as in the case of compounds 6d, 6g, and 6j, also seems beneficial, with fluoro (6j) showing the best results. […]. Overall, the cytotoxicity data provide valuable insights into the structure–activity relationships of the synthesized compounds and can guide further optimization efforts to develop potential anticancer agents with improved potency and selectivity.
. The SI values represent the ratio of the IC50 values for the normal WI-38 cell line compared with the respective cancer cell lines, with higher SI values indicating greater selectivity for the cancer cells over normal cells. […]. The cytotoxic potential of compounds 6a-l was evaluated against a panel of cancer cell lines, including HCT-116, HepG2, and MCF-7, as well as a normal cell line, WI-38, using the reported methodology. The cell lines utilized in this study were obtained from the American Type Culture Collection (ATCC) through the Holding Company for Biological Products and Vaccines (VACSERA) in Cairo, Egypt. These included: 1. A human colon cancer cell line (HCT-116); 2. Hepatocellular carcinoma (HepG2)—a liver cancer cell line; 3. Mammary gland breast cancer (MCF-7); and 4. A human lung fibroblast (WI-38)—a normal cell line.

mTOR = mTOR (Homo sapiens, UniProt P42345); test: In vitro enzyme inhibition, mTOR
AURKC = target: T1, AURKC (Homo sapiens, UniProt Q9UQB9); test: In vitro protein kinase inhibition, AURKC
T1 sequence (Q9UQB9 1-309): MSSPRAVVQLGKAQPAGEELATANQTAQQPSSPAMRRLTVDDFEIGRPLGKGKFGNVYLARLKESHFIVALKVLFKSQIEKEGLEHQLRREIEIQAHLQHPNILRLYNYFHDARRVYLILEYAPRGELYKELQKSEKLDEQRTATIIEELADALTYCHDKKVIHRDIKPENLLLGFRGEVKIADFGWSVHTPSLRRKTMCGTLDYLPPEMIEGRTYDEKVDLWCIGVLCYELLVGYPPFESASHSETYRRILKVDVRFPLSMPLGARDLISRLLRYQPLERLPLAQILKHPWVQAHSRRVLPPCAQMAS

CDK2 = CDK2 (Homo sapiens, UniProt P24941); test: In vitro protein kinase inhibition, CDK2
HDAC1 = HDAC1 (Homo sapiens, UniProt Q13547); test: In vitro enzyme inhibition, HDAC1; type: biochemical; settings: mean ± SD of triplicate; read-out: In Vitro Protein Kinase Inhibition IC50 HDAC1
Her2 = Her2 (Homo sapiens, UniProt P04626); test: In vitro protein kinase inhibition, Her2
VEGFR2 = VEGFR2 (Homo sapiens, UniProt P35968); test: In vitro protein kinase inhibition, VEGFR2; type: biochemical; settings: mean ± SD of triplicate
Excerpt: […]. […] […].

EGFR = EGFR (Homo sapiens, UniProt P00533); test: In vitro protein kinase inhibition, EGFR
Sequence of EGFR (P00533 25-1210): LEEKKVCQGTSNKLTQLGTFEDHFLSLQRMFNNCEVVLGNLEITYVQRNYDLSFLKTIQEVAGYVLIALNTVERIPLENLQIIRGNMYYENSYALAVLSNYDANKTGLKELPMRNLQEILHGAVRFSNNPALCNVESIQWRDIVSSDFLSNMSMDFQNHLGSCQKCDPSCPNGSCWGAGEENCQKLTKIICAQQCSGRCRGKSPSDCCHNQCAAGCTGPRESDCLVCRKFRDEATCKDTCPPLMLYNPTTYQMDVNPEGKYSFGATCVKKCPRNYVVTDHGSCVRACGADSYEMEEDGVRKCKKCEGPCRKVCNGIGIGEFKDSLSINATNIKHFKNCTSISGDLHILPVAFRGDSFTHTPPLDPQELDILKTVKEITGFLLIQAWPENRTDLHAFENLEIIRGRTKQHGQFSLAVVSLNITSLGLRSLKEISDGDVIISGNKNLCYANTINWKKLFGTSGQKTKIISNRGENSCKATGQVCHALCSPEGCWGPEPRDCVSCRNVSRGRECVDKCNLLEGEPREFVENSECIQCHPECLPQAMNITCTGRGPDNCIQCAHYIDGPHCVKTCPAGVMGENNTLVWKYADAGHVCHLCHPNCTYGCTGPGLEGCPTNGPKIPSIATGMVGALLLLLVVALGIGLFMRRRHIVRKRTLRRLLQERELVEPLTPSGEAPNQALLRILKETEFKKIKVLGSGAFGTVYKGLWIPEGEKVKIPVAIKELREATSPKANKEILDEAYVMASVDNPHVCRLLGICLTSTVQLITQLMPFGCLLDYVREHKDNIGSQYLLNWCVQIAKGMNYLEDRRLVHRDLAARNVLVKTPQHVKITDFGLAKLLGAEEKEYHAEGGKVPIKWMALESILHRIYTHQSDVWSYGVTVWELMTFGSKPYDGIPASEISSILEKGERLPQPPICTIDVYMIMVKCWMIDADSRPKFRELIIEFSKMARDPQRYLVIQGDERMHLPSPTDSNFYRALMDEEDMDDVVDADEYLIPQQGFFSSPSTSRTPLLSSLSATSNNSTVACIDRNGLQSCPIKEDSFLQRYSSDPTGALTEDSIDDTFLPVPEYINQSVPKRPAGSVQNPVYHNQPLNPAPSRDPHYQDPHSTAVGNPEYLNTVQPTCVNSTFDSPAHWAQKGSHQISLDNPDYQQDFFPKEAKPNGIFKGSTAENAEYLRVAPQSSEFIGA

Sequence of VEGFR2 (P35968 20-1356): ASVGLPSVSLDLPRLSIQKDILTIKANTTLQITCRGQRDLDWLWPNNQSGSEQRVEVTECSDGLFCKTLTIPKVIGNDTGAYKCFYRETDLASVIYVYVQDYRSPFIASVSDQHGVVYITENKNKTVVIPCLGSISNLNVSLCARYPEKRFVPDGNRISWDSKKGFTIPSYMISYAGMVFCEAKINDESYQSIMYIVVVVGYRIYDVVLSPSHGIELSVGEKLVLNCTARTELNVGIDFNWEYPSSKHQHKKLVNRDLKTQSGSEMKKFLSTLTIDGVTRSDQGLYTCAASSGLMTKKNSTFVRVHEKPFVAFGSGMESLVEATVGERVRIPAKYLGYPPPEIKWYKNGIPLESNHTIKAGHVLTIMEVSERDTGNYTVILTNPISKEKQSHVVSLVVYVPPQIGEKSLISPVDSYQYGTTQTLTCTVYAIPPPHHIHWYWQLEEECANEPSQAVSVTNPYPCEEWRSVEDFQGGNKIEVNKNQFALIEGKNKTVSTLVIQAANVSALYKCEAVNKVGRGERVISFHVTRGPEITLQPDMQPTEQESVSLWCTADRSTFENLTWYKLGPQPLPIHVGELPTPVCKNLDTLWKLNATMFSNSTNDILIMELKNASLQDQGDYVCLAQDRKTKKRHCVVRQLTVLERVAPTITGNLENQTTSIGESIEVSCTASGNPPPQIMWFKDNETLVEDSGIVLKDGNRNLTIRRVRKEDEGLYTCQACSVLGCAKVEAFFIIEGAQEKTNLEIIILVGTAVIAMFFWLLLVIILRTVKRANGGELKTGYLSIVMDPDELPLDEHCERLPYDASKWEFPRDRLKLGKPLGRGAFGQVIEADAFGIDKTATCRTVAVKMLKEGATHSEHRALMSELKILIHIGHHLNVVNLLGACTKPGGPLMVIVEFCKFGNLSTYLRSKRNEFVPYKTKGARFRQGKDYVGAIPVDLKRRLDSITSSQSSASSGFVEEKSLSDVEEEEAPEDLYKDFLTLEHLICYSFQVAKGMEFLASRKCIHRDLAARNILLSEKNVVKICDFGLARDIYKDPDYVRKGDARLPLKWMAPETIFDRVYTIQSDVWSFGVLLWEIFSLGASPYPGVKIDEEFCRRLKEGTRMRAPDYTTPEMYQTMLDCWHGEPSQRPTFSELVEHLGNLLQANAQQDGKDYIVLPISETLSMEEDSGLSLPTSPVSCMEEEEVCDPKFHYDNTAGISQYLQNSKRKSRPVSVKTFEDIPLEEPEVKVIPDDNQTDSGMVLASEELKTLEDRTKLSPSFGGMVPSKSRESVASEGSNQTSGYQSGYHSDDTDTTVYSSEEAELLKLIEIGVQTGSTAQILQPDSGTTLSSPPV
Sequence of HDAC1 (Q13547 whole entry): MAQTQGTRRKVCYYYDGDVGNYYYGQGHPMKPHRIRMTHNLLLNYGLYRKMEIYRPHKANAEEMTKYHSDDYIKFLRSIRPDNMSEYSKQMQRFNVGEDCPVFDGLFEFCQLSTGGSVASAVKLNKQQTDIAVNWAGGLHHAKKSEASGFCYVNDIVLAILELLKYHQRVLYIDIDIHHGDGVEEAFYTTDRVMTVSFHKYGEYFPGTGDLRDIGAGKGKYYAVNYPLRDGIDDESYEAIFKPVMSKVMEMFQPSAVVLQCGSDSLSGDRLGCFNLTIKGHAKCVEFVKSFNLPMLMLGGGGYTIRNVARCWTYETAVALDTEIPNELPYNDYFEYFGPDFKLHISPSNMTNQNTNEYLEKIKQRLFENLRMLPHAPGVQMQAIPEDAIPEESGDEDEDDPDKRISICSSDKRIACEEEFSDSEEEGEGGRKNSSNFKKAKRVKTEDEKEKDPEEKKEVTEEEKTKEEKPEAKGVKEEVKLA
Sequence of Her2 (P04626 23-1255): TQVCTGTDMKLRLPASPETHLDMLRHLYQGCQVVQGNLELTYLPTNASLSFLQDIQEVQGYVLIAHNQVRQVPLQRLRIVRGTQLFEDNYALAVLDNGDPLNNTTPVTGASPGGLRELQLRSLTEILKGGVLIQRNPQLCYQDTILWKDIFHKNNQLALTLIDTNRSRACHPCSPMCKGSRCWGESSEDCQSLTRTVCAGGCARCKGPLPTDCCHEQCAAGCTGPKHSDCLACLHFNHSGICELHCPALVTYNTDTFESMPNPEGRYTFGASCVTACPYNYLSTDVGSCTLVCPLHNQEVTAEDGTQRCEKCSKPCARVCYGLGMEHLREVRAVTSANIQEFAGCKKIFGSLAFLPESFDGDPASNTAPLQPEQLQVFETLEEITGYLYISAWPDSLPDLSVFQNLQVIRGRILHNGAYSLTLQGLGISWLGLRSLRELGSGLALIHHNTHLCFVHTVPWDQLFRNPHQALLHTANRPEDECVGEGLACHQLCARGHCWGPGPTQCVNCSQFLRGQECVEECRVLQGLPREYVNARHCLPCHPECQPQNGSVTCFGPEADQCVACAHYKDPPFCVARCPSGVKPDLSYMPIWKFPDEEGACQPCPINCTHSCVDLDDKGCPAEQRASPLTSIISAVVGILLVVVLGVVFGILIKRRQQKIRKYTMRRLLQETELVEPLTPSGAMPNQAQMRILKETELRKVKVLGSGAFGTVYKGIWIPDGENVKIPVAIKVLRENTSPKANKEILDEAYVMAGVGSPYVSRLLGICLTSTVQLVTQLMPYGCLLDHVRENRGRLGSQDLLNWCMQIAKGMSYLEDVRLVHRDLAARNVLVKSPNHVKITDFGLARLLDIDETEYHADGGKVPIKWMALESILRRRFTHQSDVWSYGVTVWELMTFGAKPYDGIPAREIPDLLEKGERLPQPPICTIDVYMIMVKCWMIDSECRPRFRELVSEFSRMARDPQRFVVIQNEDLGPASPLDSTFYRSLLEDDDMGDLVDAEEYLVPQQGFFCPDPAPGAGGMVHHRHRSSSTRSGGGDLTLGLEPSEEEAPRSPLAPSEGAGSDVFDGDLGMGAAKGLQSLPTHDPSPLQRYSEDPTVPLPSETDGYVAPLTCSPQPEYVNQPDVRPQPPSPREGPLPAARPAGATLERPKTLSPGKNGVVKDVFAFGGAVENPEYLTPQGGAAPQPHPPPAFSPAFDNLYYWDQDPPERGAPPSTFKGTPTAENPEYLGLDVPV

Structure (SMILES): CCN(CC)CCNC(=O)c1c(C)[nH]c(/C=C2\C(=O)Nc3ccc(F)cc32)c1C [Sunitinib, reference compound]
IC50 [1]: 8.38 ± 0.5 µM
IC50 [2]: 55.6 ± 3.3 µM
IC50 [3]: 17.9 ± 1.3 µM
IC50 [4]: 24.1 ± 2 µM

Structure (SMILES): O=C(N/N=C/c1ccc(Cl)cc1)c1ccc(NCc2nc3ccccc3[nH]2)cc1 [6g, (E)-4-(((1H-benzo[d]imidazol-2-yl)methyl)amino)-N′-(4-chlorobenzylidene)benzohydrazide]
IC50 [1]: 24.9 ± 1.7 µM
SI (Selectivity Index) HepG2 [1]: 2.86
IC50 [2]: 71.2 ± 3.5 µM
IC50 [3]: 35.3 ± 2.3 µM
SI (Selectivity Index) HCT-116 [3]: 2.02
melting point: 290 °C
IC50 [4]: 22.5 ± 1.6 µM
SI (Selectivity Index) MCF-7 [4]: 3.16
IC50 [5]: > 20 µM

Structure (SMILES): O=C(N/N=C/c1ccc(Cl)cc1Cl)c1ccc(NCc2nc3ccccc3[nH]2)cc1 [6k, (E)-4-(((1H-benzo[d]imidazol-2-yl)methyl)amino)-N′-(2,4-dichlorobenzylidene)benzohydrazide]
IC50 [1]: 44.8 ± 2.4 µM
IC50 [2]: > 100 µM
IC50 [3]: 67.8 ± 3.8 µM
melting point: 294 °C
IC50 [4]: 48.6 ± 2.7 µM
IC50 [5]: > 20 µM

Structure (SMILES): O=C(N/N=C/c1cc(F)ccc1F)c1ccc(NCc2nc3ccccc3[nH]2)cc1 [6l, (E)-4-(((1H-benzo[d]imidazol-2-yl)methyl)amino)-N′-(2,5-difluorobenzylidene)benzohydrazide]
IC50 [1]: 20 ± 1.5 µM
SI (Selectivity Index) HepG2 [1]: 3.88
IC50 [2]: 77.6 ± 4.1 µM
IC50 [3]: 39.8 ± 2.2 µM
SI (Selectivity Index) HCT-116 [3]: 1.95
melting point: 160 °C
IC50 [4]: 29.8 ± 2 µM
SI (Selectivity Index) MCF-7 [4]: 2.60
IC50 [5]: > 20 µM

Structure (SMILES): O=C(N/N=C/c1ccc(Br)cc1)c1ccc(NCc2nc3ccccc3[nH]2)cc1 [6d, (E)-4-(((1H-benzo[d]imidazol-2-yl)methyl)amino)-N′-(4-bromobenzylidene)benzohydrazide]
IC50 [1]: 17.8 ± 1.3 µM
SI (Selectivity Index) HepG2 [1]: 3.05
IC50 [2]: 54.3 ± 3.1 µM
IC50 [3]: 30.3 ± 2.1 µM
SI (Selectivity Index) HCT-116 [3]: 1.79
melting point: 287 °C
IC50 [4]: 25.2 ± 1.8 µM
SI (Selectivity Index) MCF-7 [4]: 2.16
IC50 [5]: < 30 µM

More lines, main results first:

melting point: 271 °C
Structure (SMILES): O=C(N/N=C/c1cccc(Cl)c1)c1ccc(NCc2nc3ccccc3[nH]2)cc1 [6f, (E)-4-(((1H-benzo[d]imidazol-2-yl)methyl)amino)-N′-(3-chlorobenzylidene)benzohydrazide]
IC50 [1]: 34.8 ± 2.1 µM
IC50 [2]: > 100 µM
IC50 [3]: 63.7 ± 3.5 µM
IC50 [4]: 45.6 ± 2.5 µM
IC50 [5]: > 20 µM

melting point: 284 °C
Structure (SMILES): O=C(N/N=C/c1ccccc1Br)c1ccc(NCc2nc3ccccc3[nH]2)cc1 [6b, (E)-4-(((1H-benzo[d]imidazol-2-yl)methyl)amino)-N′-(2-bromobenzylidene)benzohydrazide]
IC50 [1]: 26.2 ± 1.9 µM
SI (Selectivity Index) HepG2 [1]: 3.22
IC50 [2]: 84.2 ± 4.3 µM
IC50 [3]: 42.9 ± 2.5 µM
SI (Selectivity Index) HCT-116 [3]: 1.96
IC50 [4]: 31.8 ± 2.1 µM
SI (Selectivity Index) MCF-7 [4]: 2.64
IC50 [5]: > 20 µM

IC50 (mTOR): 1.461 ± 5e-05 µM
IC50 (AURKC): 0.0944 ± 3.6e-05 µM
IC50 (CDK2): 0.938 ± 3.9e-05 µM
melting point: 278 °C
IC50 (HDAC1): 2.263 ± 7.7e-05 µM
IC50 (Her2): 0.0556 ± 2.3e-05 µM
IC50 (VEGFR2): 0.6045 ± 2.2e-05 µM
IC50 (EGFR): 0.1252 ± 4.1e-05 µM
Structure (SMILES): O=C(N/N=C/c1cccc(Br)c1)c1ccc(NCc2nc3ccccc3[nH]2)cc1 [6c, (E)-4-(((1H-benzo[d]imidazol-2-yl)methyl)amino)-N′-(3-bromobenzylidene)benzohydrazide]
IC50 [1]: 8.9 ± 0.6 µM
SI (Selectivity Index) HepG2 [1]: 5.41
IC50 [2]: 48.2 ± 2.7 µM
IC50 [3]: 10.2 ± 0.8 µM
SI (Selectivity Index) HCT-116 [3]: 4.72
IC50 [4]: 7.82 ± 0.6 µM
SI (Selectivity Index) MCF-7 [4]: 6.16
IC50 [5]: 7.82 to 10.2 µM

melting point: 278 °C
Structure (SMILES): O=C(N/N=C/c1ccccc1)c1ccc(NCc2nc3ccccc3[nH]2)cc1 [6a, (E)-4-(((1H-benzo[d]imidazol-2-yl)methyl)amino)-N′-benzylidenebenzohydrazide]
IC50 [1]: 31.8 ± 2.2 µM
SI (Selectivity Index) HepG2 [1]: 2.29
IC50 [2]: 72.6 ± 4 µM
IC50 [3]: 24.6 ± 1.9 µM
SI (Selectivity Index) HCT-116 [3]: 2.95
IC50 [4]: 26.3 ± 1.9 µM
SI (Selectivity Index) MCF-7 [4]: 2.76
IC50 [5]: > 20 µM

IC50 (mTOR): 0.413 ± 1.4e-05 µM
IC50 (AURKC): 0.011 ± 4e-06 µM
IC50 (CDK2): 0.284 ± 1.2e-05 µM
melting point: 289 °C
IC50 (HDAC1): 0.1511 ± 5e-06 µM
IC50 (Her2): 0.0232 ± 1e-06 µM
IC50 (VEGFR2): 0.1945 ± 7e-06 µM
IC50 (EGFR): 0.0732 ± 4e-06 µM
Structure (SMILES): O=C(N/N=C/c1ccccc1F)c1ccc(NCc2nc3ccccc3[nH]2)cc1 [6h, (E)-4-(((1H-benzo[d]imidazol-2-yl)methyl)amino)-N′-(2-fluorobenzylidene)benzohydrazide]
IC50 [1]: 12.9 ± 1 µM
SI (Selectivity Index) HepG2 [1]: 7.19
IC50 [2]: 93 ± 4.6 µM
IC50 [3]: 21.5 ± 1.6 µM
SI (Selectivity Index) HCT-116 [3]: 4.33
IC50 [4]: 16.3 ± 1.2 µM
SI (Selectivity Index) MCF-7 [4]: 5.70
IC50 [5]: < 30 µM

melting point: 289 °C
Structure (SMILES): O=C(N/N=C/c1ccccc1Cl)c1ccc(NCc2nc3ccccc3[nH]2)cc1 [6e, (E)-4-(((1H-benzo[d]imidazol-2-yl)methyl)amino)-N′-(2-chlorobenzylidene)benzohydrazide]
IC50 [1]: 28.8 ± 1.7 µM
SI (Selectivity Index) HepG2 [1]: 2.15
IC50 [2]: 61.9 ± 3.5 µM
IC50 [3]: 46.7 ± 2.7 µM
SI (Selectivity Index) HCT-116 [3]: 1.33
IC50 [4]: 36.2 ± 2.3 µM
SI (Selectivity Index) MCF-7 [4]: 1.71
IC50 [5]: > 20 µM
